Source: US20040132751A1, “Use of desoxypeganine for treating central nervous system symptoms resulting from intoxications by psychotrops” (priority 2001, published 2004)

Test system: rats
Test: animal experiments: recovery of cognitive abilities in rats after administration of deoxypeganine
Type: in vivo
Details: restoration did not occur, or occurred only considerably later, in untreated control animals

With `c1ccc2c(c1)CN1CCCC1=N2` [deoxypeganine, 1,2,3,9-tetrahydropyrrolo[2,1-b]quinazoline] the “recovery of cognitive abilities” value was “able to bring about a recovery of cognitive abilities”.
